“Also recorded” adds a separate entry of the source.
Legend:
Lewis Lung tumors = assay: Subcutaneous Lewis Lung syngeneic tumor model: survival, tumor burden, metastasis; type: in vivo; conditions: Lewis Lung tumor bearing C57Bl/6 mice; BGB324 combined with PD-1/PD-L1 compared to PD-1/PD-L1 alone
Description: • Species/Strain: Balb/c ABomTac • Source: Taconic Farms • Sex: Female • Weight: 20-30 grams on the day of implantation • Age: at least 6 weeks old on the day of randomization • Animal Identification: Cage number and ear notching Experimental Animals for Syngeneic Lewis Lung Model: • Species/Strain: C57BL/6JOlaHsd • Source: Harlan Laboratories • Sex: Female • Weight: 20-30 grams on the day of implantation • Age: at least 6 weeks old on the day of randomization • Animal Identification: Cage number and ear notching Cells and Materials: • RPMI-1640 (Sigma, Cat. # R8758) supplemented with 10% fetal bovine serum (FBS), L-glutamine (4 mM), streptomycin (5 μg/ml) and penicillin (5 U/ml). • BD Matrigel™ Basement Membrane Matrix Growth Factor Reduced, BD Bioscience, Cat. #354230, Lot #2229975. • 0.25% Trypsin-EDTA, Sigma, Cat. # SLBD8049. Drugs Vehicle: 0.5% HPMC/0.1% Tween 80 vehicle for BGB324. Sterile PBS for immune checkpoint inhibitors. IgG: InVivoMAb Polyclonal Armenian Hamster IgG, BE0091, BioXCell, Isotype control for IP injections. BGB324: Manufacturer: Almac Group, N Ireland, batch Q1080. BGB324 powder was stored at room temperature. […] BGB324 was diluted in vehicle to 5 mg/ml dosing solution and administered to the mice immediately. BGB324 solution was freshly prepared every day. […]

[1] = test system: Cytotoxic T cells (CTLs), Natural Killer cells, macrophages, neutrophils, mMDSCs; assay: Immune cell sub-populations in tumors and spleens, 4T1 model; type: in vivo, Balb/c mice
Description: • Species/Strain: Balb/c ABomTac • Source: Taconic Farms • Sex: Female • Weight: 20-30 grams on the day of implantation • Age: at least 6 weeks old on the day of randomization • Animal Identification: Cage number and ear notching Experimental Animals for Syngeneic Lewis Lung Model: • Species/Strain: C57BL/6JOlaHsd • Source: Harlan Laboratories • Sex: Female • Weight: 20-30 grams on the day of implantation • Age: at least 6 weeks old on the day of randomization • Animal Identification: Cage number and ear notching Cells and Materials: • RPMI-1640 (Sigma, Cat. # R8758) supplemented with 10% fetal bovine serum (FBS), L-glutamine (4 mM), streptomycin (5 μg/ml) and penicillin (5 U/ml). • BD Matrigel™ Basement Membrane Matrix Growth Factor Reduced, BD Bioscience, Cat. #354230, Lot #2229975. • 0.25% Trypsin-EDTA, Sigma, Cat. # SLBD8049. Drugs Vehicle: 0.5% HPMC/0.1% Tween 80 vehicle for BGB324. Sterile PBS for immune checkpoint inhibitors. IgG: InVivoMAb Polyclonal Armenian Hamster IgG, BE0091, BioXCell, Isotype control for IP injections. BGB324: Manufacturer: Almac Group, N Ireland, batch Q1080. BGB324 powder was stored at room temperature. The BGB324 dosage given was well below the MTD in mice (023-TR-324). […] BGB324 was diluted in vehicle to 5 mg/ml dosing solution and administered to the mice immediately. BGB324 solution was freshly prepared every day. Anti-mCTLA-4 (CD152) monoclonal antibody (CTAA-4): Syrian Hamster IgG, clone 9H10 (BioXCell, Cat. # BE0131). Anti-mPD-1 monoclonal antibody (PD-1): rat IgG2a, clone RMP1-14 (BioXCell, Cat. # BE0146). Anti-mPD-L1 monoclonal antibody (PD-L1): rat IgG2b, clone 10F.9G2 (BioXCell, Cat # BE0101). Methods Cell Culture 4T1 mammary adenocarcinoma cells and Non Small Cell Lung Cancer (NSCLC) Lewis Lung (LL2) were propagated at sub-confluence and split on a regular basis every 3rd day. After trypsinization, the cells were washed once in RPMI/FBS (7 min at 1200 rpm) and re-suspended at 4×10^6 cells/ml (4T1 cells) or 2.5×10^6 per ml (LL2 cells) in a mixture of serum-free RPMI medium and Matrigel (1:1). Subcutaneous Tumor Inoculation Each animal was weighed before cell implantation. Injection of cells was performed after anesthetizing of mice by inhalation of sevoflurane. Anesthesia was induced with 8% sevoflurane and maintained at 4%. During injection, the mouse was placed on a heating pad. For implantation of 4T1 tumors: under a suitable depth of unconsciousness, each mouse was shaved and skin surrounding the region was washed with Chlorhexidine (1 mg/ml) with use of sterile gauze. […] Assignment of Experimental Groups Before commencement of treatment, the animals were weighted and the tumor volume was measured twice a week. […]

[2] = test system: Cytotoxic T cells (CTLs), Natural Killer cells (NK), mMDSCs; assay: Immune cell sub-populations in tumors, Lewis Lung model; type: in vivo, C57Bl/6 mice; conditions: BGB324 combined with PD-1/PD-L1 compared to PD-1/PD-L1 alone, day 21
Description: • Species/Strain: Balb/c ABomTac • Source: Taconic Farms • Sex: Female • Weight: 20-30 grams on the day of implantation • Age: at least 6 weeks old on the day of randomization • Animal Identification: Cage number and ear notching Experimental Animals for Syngeneic Lewis Lung Model: • Species/Strain: C57BL/6JOlaHsd • Source: Harlan Laboratories • Sex: Female • Weight: 20-30 grams on the day of implantation • Age: at least 6 weeks old on the day of randomization • Animal Identification: Cage number and ear notching Cells and Materials: • RPMI-1640 (Sigma, Cat. # R8758) supplemented with 10% fetal bovine serum (FBS), L-glutamine (4 mM), streptomycin (5 μg/ml) and penicillin (5 U/ml). • BD Matrigel™ Basement Membrane Matrix Growth Factor Reduced, BD Bioscience, Cat. #354230, Lot #2229975. • 0.25% Trypsin-EDTA, Sigma, Cat. # SLBD8049. Drugs Vehicle: 0.5% HPMC/0.1% Tween 80 vehicle for BGB324. Sterile PBS for immune checkpoint inhibitors. IgG: InVivoMAb Polyclonal Armenian Hamster IgG, BE0091, BioXCell, Isotype control for IP injections. BGB324: Manufacturer: Almac Group, N Ireland, batch Q1080. BGB324 powder was stored at room temperature. […] BGB324 was diluted in vehicle to 5 mg/ml dosing solution and administered to the mice immediately. BGB324 solution was freshly prepared every day. Anti-mCTLA-4 (CD152) monoclonal antibody (CTAA-4): Syrian Hamster IgG, clone 9H10 (BioXCell, Cat. # BE0131). […] Anti-mPD-L1 monoclonal antibody (PD-L1): rat IgG2b, clone 10F.9G2 (BioXCell, Cat # BE0101). Methods Cell Culture 4T1 mammary adenocarcinoma cells and Non Small Cell Lung Cancer (NSCLC) Lewis Lung (LL2) were propagated at sub-confluence and split on a regular basis every 3rd day. After trypsinization, the cells were washed once in RPMI/FBS (7 min at 1200 rpm) and re-suspended at 4×10^6 cells/ml (4T1 cells) or 2.5×10^6 per ml (LL2 cells) in a mixture of serum-free RPMI medium and Matrigel (1:1). Subcutaneous Tumor Inoculation Each animal was weighed before cell implantation. Injection of cells was performed after anesthetizing of mice by inhalation of sevoflurane. […]

[3] = 4T1 model, BGB324 combined with CTLA-4/PD-1 compared to CTLA-4/PD-1 alone, day 11

## Nc1nc(Nc2ccc3c(c2)CC[C@@H](N2CCCC2)CC3)nn1-c1cc2c(nn1)-c1ccccc1CCC2 [BGB324, 1-(6,7-dihydro-5H-benzo[6,7]cyclohepta[1,2-c]pyridazin-3-yl)-N^3-((7-(S)-pyrrolidin-1-yl)-6,7,8,9-tetrahydro-5H-benzo[7]annulene-2-yl)-1H-1,2,4-triazole-3,5-diamine]
Lewis Lung tumors
  survival (tumor reaching 500 mm^3 as endpoint): significantly prolonged survival
  tumor burden: reduced tumor burden
[1]; 4T1 model, 43 days after treatment initiation, compared to immune check point inhibitors alone
  number of CTLs in the spleen: further enhanced the number of CTLs
[1]; [3]
  presence of Natural Killer cells, macrophages and neutrophils in spleens: enhanced presence of NK cells, macrophages and PMN neuotrophiles
  presence of pro-tumorigenic mMDSCs in spleens: reduction in the presence of pro-tumorigenic mMDSC
[1]; 4T1 tumors, BGB324 combined with CTLA-4/PD-1 compared to CTLA-4/PD-1 alone
  tumor infiltration of Cytotoxic T cells (CTLs): enhanced CTL tumor infiltration; also recorded: further enhanced tumour infiltration of CTLs
[2]; Lewis Lung model
  presence of pro-tumorigenic mMDSCs: reduction in the presence of pro-tumorigenic mMDSC
[2]; Lewis Lung tumors
  tumor infiltration / presence of Natural Killer cells (NK): enhanced presence of NK cells
  tumor infiltration of Cytotoxic T cells (CTLs): enhanced CTL tumor infiltration
